Literature values in publication PMC10177510, “A Multicenter, Open-Label, Phase I/II Study of FN-1501 in Patients with Advanced Solid Tumors” (Cancers, 2023).
In brackets after ≈: the same amount, converted by molar mass.

Tested on: MV-4-11
Settings: cited from earlier work

CCc1nc(C(N)=O)c(Nc2ccc(N3CCC(N4CCN(C)CC4)CC3)c(OC)c2)nc1NC1CCOCC1 [gilteritinib, reference compound]
IC50: 0.5 ng/mL (≈ 0.905 nM)
